Assays:
Format in all cases: biochemical
[1] = target: CDK4/Cyclin D1 (Homo sapiens (Human), UniProt P11802); assay: CDK4/Cyclin D1 CHEF Assay; conditions: AQT; read-out: CDK4/CyclinD1 AQT IC50
From the text: CDK4/Cyclin D1 CHEF Assay
The purpose of CDK4/Cyclin Dl assay is to evaluate the inhibition (% inhibition and IC50 values) of small molecule inhibitors by using a Chelation-Enhance Fluorescence (CHEF) assay. In a CHEF assay, phosphorylation of a peptide substrate results in proportional increase in fluorescence. CHEF kinase assay use peptide substrates containing a synthetic alpha-amino acid with a side chain bearing an 8-hydroxyquinoline derivative (sulfonamido-oxide, Sox). Upon phosphorylation of a nearby serine, threonine or tyrosine and in the presence of Mg(II), the spectral properties of the Sox residue are altered, emitting 485 nm wavelength light when excited with a 360 nm wavelength light source. CDK4/Cyclin D1 catalyzes the phosphoryl transfer to the SOX-labeled substrate peptide AQT0258 from Assayquant Technologies. […] The reaction was initiated with the addition of substrate solution, following a 30-minute pre-incubation of enzyme and inhibitor at 22° C. in the reaction mix. Reactions were allowed to proceed for 3 hrs at 22° C., followed by fluorescence read of the reaction. The IC50 determinations were made from a plot of the fractional velocity as a function of inhibitor concentration fit to the 4 parameters IC50 equation.

[2] = target: CDK6/Cyclin D3 (Homo sapiens (Human), UniProt Q00534); assay: CDK6/Cyclin D3 ADP-Glo Kinase Assay; conditions: read-out: CDK6/CyclinD3 IC50
Sequence of CDK6/Cyclin D3 (Q00534 whole entry): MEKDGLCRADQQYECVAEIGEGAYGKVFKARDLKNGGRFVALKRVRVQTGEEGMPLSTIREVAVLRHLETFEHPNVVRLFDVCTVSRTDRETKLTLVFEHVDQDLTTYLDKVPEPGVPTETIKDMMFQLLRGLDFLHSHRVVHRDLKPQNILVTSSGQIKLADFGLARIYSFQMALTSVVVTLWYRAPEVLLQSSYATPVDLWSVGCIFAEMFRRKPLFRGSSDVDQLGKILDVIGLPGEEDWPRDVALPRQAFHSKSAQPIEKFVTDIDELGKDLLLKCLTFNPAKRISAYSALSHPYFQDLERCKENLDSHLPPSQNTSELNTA
Sequence of CDK6/Cyclin D3 (P30281 whole entry partner): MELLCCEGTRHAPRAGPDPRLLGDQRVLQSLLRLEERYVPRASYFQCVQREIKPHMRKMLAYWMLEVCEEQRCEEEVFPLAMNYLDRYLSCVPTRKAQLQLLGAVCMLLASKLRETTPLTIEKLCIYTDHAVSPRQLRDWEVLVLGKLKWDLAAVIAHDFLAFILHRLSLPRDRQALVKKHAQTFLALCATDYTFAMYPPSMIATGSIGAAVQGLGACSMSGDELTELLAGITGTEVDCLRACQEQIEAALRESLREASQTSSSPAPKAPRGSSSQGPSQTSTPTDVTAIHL
Protocol: CDK6/Cyclin D3 ADP-Glo Kinase Assay
(§1) The purpose of the CDK6/Cyclin D3 assay is to evaluate the inhibition (% inhibition and IC50 values) in the presence of small molecule inhibitors by using a Luminescent based ADP-Glo assay. CDK6/Cyclin D3 catalyzes the production of ADP from ATP. ADP-Glo assay monitors ADP producing biochemical reactions. ADP-Glo is performed in 2 steps upon completion of kinase reaction: a combined termination of kinase reaction and depletion of remaining ATP in the first step, and conversion of generated ADP to ATP and the newly produced ATP to light output using luciferase/luciferin reaction in the second step. The luminescent signal generated is proportional to the ADP concentration produced and is correlated with the kinase activity. CDK6/Cychin D3 was purchased from Carna. […] The assay was initiated with the addition of ATP-containing substrate solution, following a 30-minute pre-incubation of enzyme and inhibitor at room temperature in the reaction mixture. The reaction was stopped after 90 minutes at room temperature by the addition of 10 μL of ADP-GLO Reagent. After a 90-minute incubation, 20 μL of Kinase Detection Reagent was added. Samples were incubated for 40 minutes, after which plate well luminescence was measured on a Envision microplate reader. The IC50 determinations were made from a plot of the fractional velocity as a function of inhibitor concentration fit to the 4 parameters IC50 equation.

[3] = target: CDK1/Cyclin B1 (Homo sapiens (Human), UniProt P06493); assay: CDK1/Cyclin B1 ADP-Glo Kinase Assay
Sequence of CDK1/Cyclin B1 (P06493 whole entry): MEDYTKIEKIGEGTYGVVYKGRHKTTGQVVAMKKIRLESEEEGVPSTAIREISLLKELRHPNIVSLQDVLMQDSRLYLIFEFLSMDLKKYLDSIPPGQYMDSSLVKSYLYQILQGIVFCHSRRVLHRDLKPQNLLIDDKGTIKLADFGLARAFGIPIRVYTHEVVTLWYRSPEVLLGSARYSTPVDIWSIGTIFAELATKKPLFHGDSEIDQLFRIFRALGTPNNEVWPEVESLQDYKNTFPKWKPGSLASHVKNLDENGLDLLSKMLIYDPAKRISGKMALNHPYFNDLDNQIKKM
Sequence of CDK1/Cyclin B1 (P14635 whole entry partner): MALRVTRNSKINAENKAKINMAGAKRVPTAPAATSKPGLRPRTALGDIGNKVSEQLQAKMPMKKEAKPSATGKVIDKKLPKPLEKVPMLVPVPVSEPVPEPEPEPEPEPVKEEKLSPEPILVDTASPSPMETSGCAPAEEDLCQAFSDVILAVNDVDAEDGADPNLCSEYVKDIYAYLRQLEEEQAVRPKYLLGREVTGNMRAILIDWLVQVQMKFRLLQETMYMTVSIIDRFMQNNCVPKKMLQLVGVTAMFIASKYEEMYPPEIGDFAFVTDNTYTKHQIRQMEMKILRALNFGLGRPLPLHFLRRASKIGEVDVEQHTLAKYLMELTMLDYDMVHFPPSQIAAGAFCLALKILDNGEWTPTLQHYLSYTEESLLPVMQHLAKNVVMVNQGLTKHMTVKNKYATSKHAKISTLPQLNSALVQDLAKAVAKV
Protocol: CDK1/Cyclin B1 ADP-Glo Kinase Assay
as §1, with “CDK1/Cyclin Bi” for “the CDK6/Cyclin D3”, “values)” for “values) in the presence”, “CDK1/Cyclin B1” for “CDK6/Cyclin D3”, “CDK1/Cyclin B1” for “CDK6/Cychin D3”, “Carna (Cat 04-102).” for “Carna.”, “90 minute” for “90-minute”

Sequence of CDK4/Cyclin D1 (P11802 whole entry, species assumed): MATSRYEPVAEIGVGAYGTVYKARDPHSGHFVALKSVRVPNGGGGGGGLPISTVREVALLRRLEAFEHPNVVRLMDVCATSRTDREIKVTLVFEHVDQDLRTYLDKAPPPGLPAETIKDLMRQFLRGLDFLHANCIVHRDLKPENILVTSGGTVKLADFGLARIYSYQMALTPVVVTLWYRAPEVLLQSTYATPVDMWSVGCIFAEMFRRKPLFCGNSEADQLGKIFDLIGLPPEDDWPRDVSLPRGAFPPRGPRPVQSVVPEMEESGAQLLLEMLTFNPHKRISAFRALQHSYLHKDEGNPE
Sequence of CDK4/Cyclin D1 (P24385 whole entry partner, species assumed): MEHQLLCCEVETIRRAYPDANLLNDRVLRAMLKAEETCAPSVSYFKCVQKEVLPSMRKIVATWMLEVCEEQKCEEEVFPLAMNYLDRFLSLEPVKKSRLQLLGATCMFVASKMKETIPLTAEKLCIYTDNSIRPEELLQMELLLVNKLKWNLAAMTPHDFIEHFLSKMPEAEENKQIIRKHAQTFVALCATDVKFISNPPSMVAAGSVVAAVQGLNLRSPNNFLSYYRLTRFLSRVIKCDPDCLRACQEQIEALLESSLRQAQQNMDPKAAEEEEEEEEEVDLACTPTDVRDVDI

| IC50 [1] | IC50 [2] | IC50 [3] | Compound |
| --- | --- | --- | --- |
| < 200 nM | 200 to 500 nM | – | Cc1cc2cnc(NC3CCN(S(C)(=O)=O)CC3)nc2c(N2CC3(CC(O)C3)C2)n1 [Compound 73, 2-(6-methyl-2-((1-(methylsulfonyl)piperidin-4-yl)amino)pyrido[3,4-d]pyrimidin-8-yl)-2-azaspiro[3.3]heptan-6-ol] |
| 200 to 500 nM | – | > 2000 nM | Cc1cc2cnc(Nc3ccc4c(c3)CN(C)C4)nc2c(N2CC3(C2)CN(C2CC2)C3)n1 [Compound 44, 8-(6-cyclopropyl-2,6-diazaspiro[3.3]heptan-2-yl)-6-methyl-N-(2-methylisoindolin-5-yl)pyrido[3,4-d]pyrimidin-2-amine] |
| < 200 nM | – | > 2000 nM | Cc1cc2cnc(N[C@H]3CC[C@@H](CN(C)C)CC3)nc2c(N2CCC3(C2)CC3(F)F)n1 (stereo partly drawn) [Compound 45, 8-(1,1-difluoro-5-azaspiro[2.4]heptan-5-yl)-N-((1s,4s)-4-((dimethylamino)methyl)cyclohexyl)-6-methylpyrido[3,4-d]pyrimidin-2-amine] |
| < 200 nM | < 200 nM | – | COCCN1CC2(CC(c3nc(C4CC4)cc4cnc(NC5CCN(S(=O)(=O)CC6CCC6)CC5)nc34)C2)C1 [Compound 80, N-(1-((cyclobutylmethyl)sulfonyl)piperidin-4-yl)-6-cyclopropyl-8-(2-(2-methoxyethyl)-2-azaspiro[3.3]heptan-6-yl)pyrido[3,4-d]pyrimidin-2-amine] |
| < 200 nM | < 200 nM | – | CN1Cc2ccc(Nc3ncc4ccnc(N5CCC6(CCN(S(C)(=O)=O)C6)C5)c4n3)cc2C1 (stereo not drawn) [Compound 23, N-(2-methylisoindolin-5-yl)-8-(7-(methylsulfonyl)-2,7-diazaspiro[4.4]nonan-2-yl) pyrido[3,4-d]pyrimidin-2-amine] |
| < 200 nM | 200 to 500 nM | – | Cc1cc2cnc(NC3CCN(S(=O)(=O)C4CC4)CC3)nc2c(N2CC3(CCN(C)C3)C2)n1 [Compound 49, N-(1-(cyclopropylsulfonyl)piperidin-4-yl)-6-methyl-8-(6-methyl-2,6-diazaspiro[3.4]octan-2-yl)pyrido[3,4-d]pyrimidin-2-amine] |
| < 200 nM | < 200 nM | – | Cc1cc2cnc(Nc3ccc(N4CC5(CN(C)C5)C4)cc3)nc2c(N2CCC3(C2)CC3(F)F)n1 (stereo not drawn) [Compound 34, 8-(1,1-difluoro-5-azaspiro[2.4]heptan-5-yl)-6-methyl-N-(4-(6-methyl-2,6-diazaspiro[3.3]heptan-2-yl)phenyl)pyrido [3,4-d]pyrimidin-2-amine] |

Further lines, the compound ahead of its results:

| Compound | IC50 [1] | IC50 [2] | IC50 [3] |
| --- | --- | --- | --- |
| Cc1cc2cnc(NC3CCN(S(=O)(=O)C4CC4)CC3)nc2c(N2CC(CS(C)(=O)=O)C2)n1 [Compound 74, N-(1-(cyclopropylsulfonyl)piperidin-4-yl)-6-methyl-8-(3-((methylsulfonyl)methyl)azetidin-1-yl)pyrido[3,4-d]pyrimidin-2-amine] | 200 to 500 nM | 200 to 500 nM | – |
| Cc1cc2cnc(NC3CCN(S(=O)(=O)C4CC4)CC3)nc2c(N2CCC(OC(F)F)C2)n1 (stereo not drawn) [Compound 58, N-(1-(cyclopropylsulfonyl)piperidin-4-yl)-8-(3-(difluoromethoxy)pyrrolidin-1-yl)-6-methylpyrido[3,4-d]pyrimidin-2-amine] | < 200 nM | < 200 nM | < 200 nM |
| Cc1cc2cnc(NC3CCN(S(=O)(=O)CC4CCCC4)CC3)nc2c(N2CC3(CCNC3)C2)n1 [Compound 51, N-(1-((cyclopentylmethyl)sulfonyl)piperidin-4-yl)-6-methyl-8-(2,6-diazaspiro[3.4]octan-2-yl)pyrido[3,4-d]pyrimidin-2-amine] | < 200 nM | 200 to 500 nM | – |
| CS(=O)(=O)N1CCC(Nc2ncc3cc(C4CC4)nc(N4CC(F)(F)C5(CNC5)C4)c3n2)CC1 [Compound 60, 6-cyclopropyl-8-(8,8-difluoro-2,6-diazaspiro[3.4]octan-6-yl)-N-(1-(methylsulfonyl)piperidin-4-yl)pyrido[3,4-d]pyrimidin-2-amine] | < 200 nM | < 200 nM | < 200 nM |
| Cc1cc2cnc(NC3CCN(S(C)(=O)=O)CC3)nc2c(N2CC3(CNC(=O)C3)C2)n1 [Compound 81, 2-(6-methyl-2-((1-(methylsulfonyl)piperidin-4-yl)amino)pyrido[3,4-d]pyrimidin-8-yl)-2,6-diazaspiro[3.4] octan-7-one] | < 200 nM | 200 to 500 nM | 200 to 500 nM |
| Cc1cc2cnc(NC3CCN(S(=O)(=O)C4CC4)CC3)nc2c(N2CC3(CNC3)C2)n1 [Compound 32, N-(1-(cyclopropylsulfonyl)piperidin-4-yl)-6-methyl-8-(2,6-diazaspiro[3.3]heptan-2-yl) pyrido[3,4-d]pyrimidin-2-amine] | < 200 nM | < 200 nM | – |
| CN1Cc2ccc(Nc3ncc4ccnc(N5CC6(C5)CS(=O)(=O)C6)c4n3)cc2C1 [Compound 24, 6-(2-((2-methylisoindolin-5-yl)amino)pyrido [3,4-d]pyrimidin-8-yl)-2-thia-6-azaspiro[3.3] heptane2,2-dioxide] | < 200 nM | < 200 nM | – |
| FC(F)c1cc2cnc(Nc3ccc4c(c3)CN(C3CC3)C4)nc2c(N2CC3(CCNC3)C2)n1 [Compound 50, N-(2-cyclopropylisoindolin-5-yl)-6-(difluoromethyl)-8-(2,6-diazaspiro[3.4]octan-2-yl)pyrido[3,4-d]pyrimidin-2-amine] | < 200 nM | < 200 nM | – |
| Cc1cc2cnc(NC3CCN(S(=O)(=O)C4CC4)CC3)nc2c(N2CC(C#N)(CCF)C2)n1 [Compound 68, 1-(2-((1-(cyclopropylsulfonyl)piperidin-4-yl)amino)-6-methylpyrido[3,4-d]pyrimidin-8-yl)-3-(2-fluoroethyl) azetidine-3-carbonitrile] | 200 to 500 nM | – | > 2000 nM |
| Cc1cc2cnc(NC3CCN(S(=O)(=O)C4CC4)CC3)nc2c(N2CC(N3CC(F)C3)C2)n1 [Compound 72, N-(1-(cyclopropylsulfonyl)piperidin-4-yl)-8-(3-fluoro-[1,3′-biazetidin]-1′-yl)-6-methylpyrido[3,4-d]pyrimidin-2-amine] | 200 to 500 nM | 200 to 500 nM | – |
| Cc1cc2cnc(Nc3ccc4c(c3)CN(C3CC3)C4)nc2c(N2CC3(CCNC3)C2)n1 [Compound 47] | < 200 nM | < 200 nM | – |
| Cc1cc2cnc(NC3CCN(S(C)(=O)=O)CC3)nc2c(C2CC(C)(CO)C2)n1 (stereo not drawn) [Compound 69, (1-methyl-3-(6-methyl-2-((1-(methylsulfonyl)piperidin-4-yl)amino)pyrido[3,4-d]pyrimidin-8-yl)cyclobutyl) methanol] | < 200 nM | < 200 nM | – |
| Cc1cc2cnc(Nc3ccc(N4CC5(CN(C)C5)C4)cc3)nc2c(N2CCC(C#N)(C3CC3)C2)n1 (stereo not drawn) [Compound 28, 3-cyclopropyl-1-(6-methyl-2-((4-(6-methyl-2,6-diazaspiro[3.3]heptan-2-yl)phenyl)amino)pyrido[3,4-d]pyrimidin-8-yl)pyrrolidine-3-carbonitrile] | < 200 nM | < 200 nM | – |
| COCCN1CC2(C1)CN(c1nc(C3CC3)cc3cnc(NC4CCN(S(=O)(=O)CC5CCC5)CC4)nc13)C2 [Compound 64, N-(1-((cyclobutylmethyl)sulfonyl)piperidin-4-yl)-6-cyclopropyl-8-(6-(2-methoxyethyl)-2,6-diazaspiro[3.3]heptan-2-yl)pyrido [3,4-d]pyrimidin-2-amine] | < 200 nM | 200 to 500 nM | – |

From patent US20250235456A1, “METHODS OF USE FOR AZA-QUINAZOLINE COMPOUNDS” (Iambic Therapeutics, Inc., priority 2024, published 2025)
